In US8445531B2, “Rodenticidal compounds, composition including same and use thereof for controlling harmful rodents” (priority 2010, dated 2013):

Columns and labels:
rats [1] = experiment: Coagulation time follow-up in rats; type: in vivo, rat
Experimental: (§1) 3 lots of 5 rats were used for the compound of formula (II), and 2 lots of 4 rats were used for bromadiolone.
(§2) 3 doses of 10 mg/kg of rat were administered intraperitoneally in succession at T0, T24h and T48h.
1 lot of rats was used to follow the coagulation time between 24 hours and 120 hours after the first injection. Actually, the coagulation time is the first parameter that varies and tends toward infinity under the action of an anticoagulant.
(§3) Doses of 2 mg/kg/day were administered for 4 days.
1 lot of rats was used to follow the coagulation time between 24 hours and 120 hours after the first injection.

rats [2] = experiment: Mortality follow-up in rats after repeated administration; type: in vivo, rat
Description: The rodenticidal effectiveness and the remanence of the compounds according to the invention have been tested in comparison with the rodenticidal product of reference bromadiolone, with bromadiolone being the least remanent of all of the second-generation anticoagulants currently used in combating rodents.
For this test, the compound of formula (II) that is obtained by implementing the process disclosed above is used.
as §1, §2
1 lot of rats was used to follow the mortality rate brought about by the 3 administrations of the compound of formula (II) according to the invention.
as §3
1 lot of rats was used to determine the mortality rate brought about at T120h.

[3] = Liver residue follow-up (remanence) in rats; type: in vivo; settings: rat liver
Experimental: as §1, §2
1 lot of rats was used to carry out a metering of residue of the compound of formula (II) in the liver at T72h, T96h and T120h.
as §3
A metering of bromadiolone residue in the liver at T120h was carried out.

[4] = 3 doses of 10 mg/kg intraperitoneally at T0, T24h, T48h, T24 h
[5] = 3 doses of 10 mg/kg intraperitoneally at T0, T24h, T48h, T48 h
[6] = 3 doses of 10 mg/kg intraperitoneally at T0, T24h, T48h, T72 h

C/C(=C\Cc1c(O)c2ccccc2oc1=O)CCCC(C)CCCC(C)CCCC(C)C (stereo not drawn) [Compound According to the Invention, 3-phytyl-4-hydroxy-coumarin]
Coagulation Time Follow-Up (rats [1]; 3 doses of 10 mg/kg intraperitoneally at T0, T24h, T48h, T0): Infinite | Coagulation Time Follow-Up (rats [1]; [4]): Infinite | Coagulation Time Follow-Up (rats [1]; [5]): Infinite | Coagulation Time Follow-Up (rats [1]; [6]): Infinite | Coagulation Time Follow-Up (rats [1]; 3 doses of 10 mg/kg intraperitoneally at T0, T24h, T48h, T96 h): Infinite | Coagulation Time Follow-Up (rats [1]; 3 doses of 10 mg/kg intraperitoneally at T0, T24h, T48h, T120 h): 120 s | Total Mortality (rats [2]; 3 doses of 10 mg/kg intraperitoneally at T0, T24h, T48h, 10 mg/kg): 100% | Mortality Follow-Up (rats [2]; [4]): 2 Deaths | Mortality Follow-Up (rats [2]; [5]): 2 Deaths | Mortality Follow-Up (rats [2]; [6]): 1 Death | Total Mortality (rats [2]; 3 doses of 10 mg/kg intraperitoneally at T0, T24h, T48h, listed as compounds according to the invention, 10 mg/kg): 100% | concentration at 72 h ([3]; ip, 3 doses of 10 mg/kg intraperitoneally at T0, T24h, T48h, T72 h): 650 ng/g | concentration at 96 h ([3]; ip, 3 doses of 10 mg/kg intraperitoneally at T0, T24h, T48h, T96 h): 510 ng/g | concentration at 120 h ([3]; ip, 3 doses of 10 mg/kg intraperitoneally at T0, T24h, T48h, T120 h): 370 ng/g

O=c1oc2ccccc2c(O)c1C(CC(O)c1ccc(-c2ccc(Br)cc2)cc1)c1ccccc1 (stereo not drawn) [Bromadiolone, bromadiolone]
Coagulation Time Follow-Up (rats [1]; 2 mg/kg/day for 4 days, T0): Infinite | Coagulation Time Follow-Up (rats [1]; 2 mg/kg/day for 4 days, T24 h): Infinite | Coagulation Time Follow-Up (rats [1]; 2 mg/kg/day for 4 days, T48 h): Infinite | Coagulation Time Follow-Up (rats [1]; 2 mg/kg/day for 4 days, T72 h): Infinite | Coagulation Time Follow-Up (rats [1]; 2 mg/kg/day for 4 days, T96 h): Infinite | Coagulation Time Follow-Up (rats [1]; 2 mg/kg/day for 4 days, T120 h, 2 mg/kg/day): Infinite | Coagulation Time Follow-Up (rats [1]; 2 mg/kg/day for 4 days, T120 h, listed as bromadiolone, 2 mg/kg/day): infinite | Total Mortality (rats [2]; 2 mg/kg/day for 4 days, 2 mg/kg/day): 100% | Mortality Follow-Up (rats [2]; 2 mg/kg/day for 4 days, T96 h): 2 Deaths | Mortality Follow-Up (rats [2]; 2 mg/kg/day for 4 days, T120 h): 2 Deaths | Total Mortality (rats [2]; 2 mg/kg/day for 4 days, listed as reference rodenticidal product, 2 mg/kg/day): 100% | Liver Residue Follow-Up ([3]; 2 mg/kg/day for 4 days, T120 h): 4.2 µg/g | liver residue of bromadiolone relative to compound of formula (II) ([3]; 120 hours after the first injection): 11 times
